This is an account of results in ChEMBL document CHEMBL1129756, “Conformationally restricted TRH analogs: a probe for the pyroglutamate region” (J Med Chem, 1996).

Each structure is given as a SMILES string.

In assay [1] the target is T1, Thyrotropin-releasing hormone receptor (Mus musculus, UniProt P21761).
T1 sequence (P21761 whole entry): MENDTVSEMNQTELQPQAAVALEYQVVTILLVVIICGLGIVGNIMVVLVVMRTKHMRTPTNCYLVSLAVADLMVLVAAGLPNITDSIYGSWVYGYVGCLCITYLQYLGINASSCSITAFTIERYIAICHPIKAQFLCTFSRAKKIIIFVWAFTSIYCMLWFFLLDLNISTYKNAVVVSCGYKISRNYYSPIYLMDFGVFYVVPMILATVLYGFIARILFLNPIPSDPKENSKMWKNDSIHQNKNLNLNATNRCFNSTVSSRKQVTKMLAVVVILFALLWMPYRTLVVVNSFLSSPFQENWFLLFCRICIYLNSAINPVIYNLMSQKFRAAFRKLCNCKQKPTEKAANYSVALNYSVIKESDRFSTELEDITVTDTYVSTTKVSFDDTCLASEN
The assay is described as follows: Binding affinity against TRH-R receptor in AtT-20 mouse pituitary tumor cells.

Assay [2] has as its target T1, Thyrotropin-releasing hormone receptor. The assay is described as follows: Effective concentration required to activate TRH-R receptor in AtT-20 mouse pituitary tumor cells.

Broadly, the Ki is a measure of affinity in units of concentration, obtained from inhibition or displacement. Higher therefore signals lower affinity. Take `Cn1cnc(C[C@H](NC(=O)[C@@H]2CCC(=O)N2)C(=O)N2CCC[C@H]2C(N)=O)c1`: in assay [1], the Ki was 1.2 nM.
One may read the EC50 as the concentration at which the effect is half-maximal. Consider `NC(=O)[C@@H]1CCCN1C(=O)[C@H](Cc1ccccc1)N1CC[C@]2(CCC(=O)N2)C1=O`, for which the EC50 in assay [2] amounted to 290 nM. This molecule gave a Ki in assay [1] of 4400 nM.
On to `NC(=O)[C@@H]1CCCN1C(=O)[C@H](Cc1cnc[nH]1)NC(=O)[C@@H]1CCC(=O)N1` [PROTIRELIN], for which the midpoint of the response in assay [2], the EC50, lay at 0.68 nM.
